Data published in article PMC8384862, “Identification of new target proteins of a Urotensin-II receptor antagonist using transcriptome-based drug repositioning approach” (Scientific Reports, 2021).
Structures can show the parent of a compound that is named as a salt.

Molecular target: T1, sodium-dependent serotonin transporter (Homo sapiens, UniProt P31645)
T1 construct: gene SLC6A4; human recombinant, CHO cell membrane
Test: radioligand displacement of [3H]imipramine on recombinant CHO cell membranes, single dose […]
Assay type: binding

T1 sequence (P31645 whole entry): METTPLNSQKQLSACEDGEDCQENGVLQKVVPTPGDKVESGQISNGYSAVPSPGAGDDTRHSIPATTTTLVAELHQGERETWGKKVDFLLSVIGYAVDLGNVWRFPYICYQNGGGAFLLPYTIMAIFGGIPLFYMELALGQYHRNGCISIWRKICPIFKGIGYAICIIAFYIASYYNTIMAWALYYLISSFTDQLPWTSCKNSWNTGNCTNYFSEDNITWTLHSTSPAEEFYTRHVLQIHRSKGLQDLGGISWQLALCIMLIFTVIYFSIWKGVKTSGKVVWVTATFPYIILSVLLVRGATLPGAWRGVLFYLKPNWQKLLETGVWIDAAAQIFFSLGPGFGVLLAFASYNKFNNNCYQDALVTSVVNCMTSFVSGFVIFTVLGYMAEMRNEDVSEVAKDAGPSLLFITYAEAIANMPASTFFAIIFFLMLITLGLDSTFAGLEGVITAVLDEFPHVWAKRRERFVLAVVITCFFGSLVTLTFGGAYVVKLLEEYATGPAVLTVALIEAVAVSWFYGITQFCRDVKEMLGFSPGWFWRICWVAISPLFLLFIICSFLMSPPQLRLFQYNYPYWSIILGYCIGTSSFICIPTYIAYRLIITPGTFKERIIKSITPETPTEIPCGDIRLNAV

CN(C)c1cccc(NC(=O)N2CCN(Cc3ccc(OC4CCNCC4)c(Br)c3)CC2)c1 [KR-37524, 4-(3-bromo-4-(piperidin-4-yloxy)benzyl)-N-(3-(dimethylamino)phenyl)piperazine-1-carboxamide dihydrochloride]
inhibition at 10 µM: > 50%
